Assay results reported in paper PMC5768801, “The PII signaling protein from red algae represents an evolutionary link between cyanobacterial and Chloroplastida PII proteins” (Scientific Reports, 2018).
Several values for one entry are separate records, joined by “and”; a condition that tells them apart may be missing. Equal values may be shown once. Entries after “also recorded” stand apart in the source; their conditions may differ. Read-outs that look alike come from different tables or passages of the source.

Legend:
PpPII = PpPII (Porphyra purpurea, UniProt P51254); assay: ITC binding of small effector molecules to red algal PpPII
Procedure: (§1) To gain additional insights into the ligand binding properties of PpPII in comparison to cyanobacterial and chloroplastid PII proteins, isothermal titration calorimetry (ITC) experiments were performed using highly purified Strep-tagged or His-tagged recombinant PpPII, SyPII, CrPII, and PhyscoPII proteins (Supplementary Fig. S1) with different protein/ligand/ concentrations to determine the best fitting conditions of the binding model. The titration experiments were repeated with different protein preparations to confirm the reproducibility of the results. The raw isothermal data were fitted into one-binding site as well as three-sequential binding sites to define the best fitting model. Fitting using a one binding site model states an average Kd value for all available binding sites and the mean of the stoichiometry of bound ligands.
(§2) The ITC experiments were done using a VP-ITC microcalorimeter (MicroCal, LCC). All details for determination of binding constants for small effector molecules using ITC are fully described in the supplementary information. Heat isotherms of the dilution of the ligand in the cell buffer were collected in a blank run for each experiment in the absence of protein. The binding isotherms were calculated from received data and fitted to one-site and three-sequential binding sites models using the MicroCal ORIGIN software (Northampton) as described. All titrations were performed in duplicates with different purification batches of recombinant PII proteins. The association binding constant (Ka) was generated from the software by de-convolution and curve fitting. For calculation of dissociation constant (Kd), the Ka value was inversed.
(§3) Supplementary Information […]
(§4) Determination of Binding Constants for Small Effector Molecules using Isothermal […]
(§5) The binding of the small effector molecules to the recombinant PII proteins was tested using isothermal titration calarmity (ITC); VP-ITC microcalorimeter (MicroCal). All titrations were performed on 20°C using […] injection syringe with injection 6 µl or 10 µl of the tested ligands for 45 or 29 times, respectively into the cell (1.4 ml) with continuous stirring at 155 rpm. All tested ligands were high grade, prepared freshly in the same buffer of the protein and purchased from Sigma-Aldrich. Heat isotherms for the dilution of the ligand in the cell buffer were collected in a blank run in the absence of protein. The received calorimetric data were analyzed using MicroCal Origin software and fitted into one-site and three-sequential binding sites models, as indicated by the manufacture for calculation of binding isotherms9. For data reproducibility, the titrations were performed in duplicates with different purification batches of recombinant PII proteins. The association binding constant (Ka) was generated from the software by de-convolution and curve fitting. For calculation of dissociation constant (Kd), the Ka value was inversed.
For determination the binding isotherms of red algal PpPII protein, a buffer system composed of […]
used. For determination ATP and ADP binding isotherms upon the binding to PpPII protein, His- […]
against 2 mM ATP or 2 mM ADP. For determination of ATP and ADP binding isotherms in […]
concentration) was titrated against 0.5 mM of ATP or 1 mM ADP, respectively. However, for […]
of 1 mM of ATP or 1 mM ADP. […]

PhyscoPII = assay: ITC binding of small effector molecules to plant-moss PhyscoPII; set-up: species or system Physcomitrella patens
Procedure: as §1, §2, §3, §4, §5
5 mM MgCl2, 0.5 mM EDTA, and 10% glycerol (pH 7.6). […]
For determination the binding isotherms of plant-moss PhyscoPII protein, a strep-tagged recombinant protein (5 or 6 µM trimeric concentration) was used in system composed of 20 mM

SyPII [1] = molecular target: T1, SyPII (Synechococcus elongatus, UniProt P0A3F4); assay: ITC binding of small effector molecules to cyanobacterial SyPII; set-up: species or system Synechococcus elongatus PCC 7942
T1 construct: Strep-tag; made in house
Procedure: as §1, §2, §3, §4
as §5, with “inversed. […]” for “inversed.”
For determination the binding isotherms of cyanobacterial SyPII protein, a strep-tagged recombinant protein (20 µM trimeric concentration) was overexpressed and used as described previously9, 15, in a buffer composed of 10 mM Hepes-NaOH, 50 mM KCl, 50 mM NaCl, and 1

SyPII [2] = molecular target: T1, SyPII; conditions: in presence ADP, given in parentheses for comparison; cited from earlier work
CrPII = assay: ITC binding of small effector molecules to green algal CrPII; set-up: species or system Chlamydomonas reinhardtii
Procedure: as §1, §2, §3, §4
as §5, with “inversed. […]” for “inversed.”

ScNAGK = molecular target: T2, ScNAGK (Synechocystis sp., UniProt P73326); assay: Coupled NAGK activity assay, ScNAGK; type: biochemical, Synechocystis sp. PCC 6803
T2 sequence (P73326 1-297): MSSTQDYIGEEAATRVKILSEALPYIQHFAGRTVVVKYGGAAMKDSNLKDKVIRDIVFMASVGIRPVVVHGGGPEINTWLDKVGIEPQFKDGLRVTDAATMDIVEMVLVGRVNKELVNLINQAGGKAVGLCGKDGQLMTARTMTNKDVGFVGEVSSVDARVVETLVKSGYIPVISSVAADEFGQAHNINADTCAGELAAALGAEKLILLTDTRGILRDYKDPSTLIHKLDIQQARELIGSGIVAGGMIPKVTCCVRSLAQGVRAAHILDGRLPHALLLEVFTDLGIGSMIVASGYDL
Procedure: (§6) The assess the activity of ScNAGK was measured with an enzyme assay, in which the ADP production was coupled to the NADH oxidation by the auxiliary enzymes pyruvate kinase and lactate dehydrogenase according to previously described procedure[32],[50]. […] The oxidation reaction of NADH was recorded for 10 min using spectrophotometer (SPECORD 210 PLUS, Analytik Jena AG) at 340 nm. […] The NADH molar absorption coefficient is 6178 L mol^−1 cm^−1 for at 340 nm, which was used for calculation. […] From the velocity slopes, the enzymatic constants Km, Kcat and IC50 were calculated using the Graph-Pad Prism software (GraphPad Software, USA).

PpPII-ScNAGK complex = PpPII-ScNAGK complex (Porphyra purpurea, UniProt P51254); assay: Coupled NAGK activity assay, ScNAGK with PpPII; type: biochemical, Synechocystis sp. PCC 6803; Porphyra purpurea; conditions: ScNAGK in the presence of PpPII, fixed 10 mM ATP
Procedure: as §6

PipX = assay: Pull-down analysis of PipX binding to PII proteins; set-up: species or system Synechocystis sp. PCC 6803; conditions: 10 µM proteins, 1 mM ADP, Strep-Tactin column, Tricine-SDS-PAGE
Excerpt: In cyanobacteria, PipX is the second known receptor of PII signaling. We questioned whether red algal PII proteins have lost or retained the ability to bind to PipX. To test this possibility, we first analyzed complex formation using pull-down experiments (Supplementary Fig. S3A and B). The PII protein from Synechocystis sp. PCC 6803 (ScPII) was mixed with PipX in the presence of ADP and then the Strep-tagged PII was immobilized on the Strep-Tactin II column (Supplementary Fig. S3A). After extensive washes, the proteins were eluted with desthiobiotin and analyzed by Tricine-SDS-PAGE. Both proteins were detected in the elution. Thus, confirming previous studies[16]–[18], cyanobacterial PII was bound to PipX. When PpPII in the presence of PipX was immobilized on the column, no PipX signal was detected in the elution (Supplementary Fig. S3B).
For complex formation, the binding reactions were done in 300 μl of buffer (100 mM Tris HCl, pH 8.0, 150 mM NaCl, 1 mM EDTA) by adding 10 µM of purified proteins: His6-ScPipX and Strep-tag ScPII or Strep-tag PpPII. […] The eluted fractions were analyzed by Tricine-SDS PAGE[51] and stained with SimplyBlue™ SafeStain (Invitrogen).
Figure S3. […] Complex formation between PipX and ScPII (A) or PpPII (B) was assessed by pull-down. […] (C) Complex formation between PipX and PII proteins was assessed by SPR. […]

[3] = titrant alone, read-out: Average Kd (one-site binding model)
[4] = titrant alone, read-out: Kd1 (three-sites binding model)
[5] = titrant alone, read-out: Kd2 (three-sites binding model)
[6] = titrant alone, read-out: Kd3 (three-sites binding model)

Chain of PpPII (P51254 whole entry): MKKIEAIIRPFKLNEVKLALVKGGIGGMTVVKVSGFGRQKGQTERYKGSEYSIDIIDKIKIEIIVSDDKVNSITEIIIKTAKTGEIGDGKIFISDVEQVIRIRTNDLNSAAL
T1 sequence (P0A3F4 whole entry): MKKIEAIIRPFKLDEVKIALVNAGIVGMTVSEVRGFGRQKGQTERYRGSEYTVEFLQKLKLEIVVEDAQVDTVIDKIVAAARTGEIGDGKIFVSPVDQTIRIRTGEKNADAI
Chain of PpPII-ScNAGK complex (P51254 whole entry, one chain of several): as the sequence (P51254 whole entry) above

O=C(O)CCC(=O)C(=O)O [2-OG, 2-oxoglutarate]
N, number of calculated binding sites (one-site binding model) (PpPII; in presence ADP (1 mM)): No binding
N, number of calculated binding sites (one-site binding model) (PpPII; in presence ATP (1 mM)): 1.0
Average Kd (one-site binding model) (PhyscoPII; in presence ATP (1 mM)): unable to detect any binding; also recorded: No binding
Kd1 (three-sites binding model) (PhyscoPII; in presence ATP (1 mM)): No binding
Kd2 (three-sites binding model) (PhyscoPII; in presence ATP (1 mM)): No binding
Kd3 (three-sites binding model) (PhyscoPII; in presence ATP (1 mM)): No binding
N, number of calculated binding sites (one-site binding model) (SyPII [1]; in presence ATP (2 mM)): 1.4
N, number of calculated binding sites (one-site binding model) (SyPII [2]): (No binding)
Average Kd (one-site binding model) (CrPII; in presence ADP (2 mM)): never observed binding; also recorded: No binding
Kd1 (three-sites binding model) (CrPII; in presence ADP (2 mM)): No binding
Kd2 (three-sites binding model) (CrPII; in presence ADP (2 mM)): No binding
Kd3 (three-sites binding model) (CrPII; in presence ADP (2 mM)): No binding
Kd (CrPII; in presence ATP (2 mM), read-out: Average Kd (one-site binding model)): 15 ± 5.4 µM
Kd (CrPII; in presence ATP (2 mM), read-out: Kd1 (three-sites binding model)): 4.2 ± 0.7 µM
Kd (CrPII; in presence ATP (2 mM), read-out: Kd2 (three-sites binding model)): 21.3 ± 11 µM
Kd (CrPII; in presence ATP (2 mM), read-out: Kd3 (three-sites binding model)): 45.5 ± 19.8 µM

Nc1ncnc2c1ncn2[C@@H]1O[C@H](COP(=O)(O)OP(=O)(O)OP(=O)(O)O)[C@@H](O)[C@H]1O [ATP]
Kd (PpPII; Average Kd (one-site binding model), in presence 2-OG (1 mM)): 0.2 ± 0.3 µM
Kd (PpPII; Average Kd (one-site binding model), titrant alone): ~22 µM and 22 µM
Kd (PpPII; Kd1 (three-sites binding model), in presence 2-OG (1 mM)): 1.4 ± 1.8 µM
Kd (PpPII; Kd1 (three-sites binding model), titrant alone): 0.5 ± 0.2 µM
Kd (PpPII; Kd2 (three-sites binding model), in presence 2-OG (1 mM)): 1 ± 0.9 µM
Kd (PpPII; Kd3 (three-sites binding model), in presence 2-OG (1 mM)): 83.9 ± 62.4 µM
Kd (PpPII; Kd3 (three-sites binding model), titrant alone): 142 ± 80.8 µM
N, number of calculated binding sites (one-site binding model) (PpPII; in presence 2-OG (1 mM)): 1.0
Kd (PpPII; read-out: Kd2 (three-sites binding model), titrant alone): 18.7 ± 9.2 µM
N, number of calculated binding sites (one-site binding model) (PpPII; titrant alone, per PII trimer): 2.5
Kd (PhyscoPII; in presence 2-OG, read-out: Average Kd (one-site binding model)): 17.6 ± 7.5 µM
Kd (PhyscoPII; in presence 2-OG, read-out: Kd1 (three-sites binding model)): 8 ± 6 µM
Kd (PhyscoPII; in presence 2-OG, read-out: Kd2 (three-sites binding model)): 16.3 ± 11.4 µM
Kd (PhyscoPII; in presence 2-OG, read-out: Kd3 (three-sites binding model)): 129 ± 128 µM
Kd (PhyscoPII; [3]): 26.8 ± 10.5 µM
Kd (PhyscoPII; [4]): 5.7 ± 1.4 µM
Kd (PhyscoPII; [5]): 13.6 ± 7.2 µM
Kd (PhyscoPII; [6]): 48.2 ± 29.3 µM
N, number of calculated binding sites (one-site binding model) (SyPII [1]; in presence 2-OG (1 mM)): 1.8
Kd (SyPII [1]; in presence 2-OG (1 mM), read-out: Average Kd (one-site binding model)): 2.7 ± 0.1 µM
Kd (SyPII [1]; in presence 2-OG (1 mM), read-out: Kd1 (three-sites binding model)): 0.5 ± 0.5 µM
Kd (SyPII [1]; in presence 2-OG (1 mM), read-out: Kd2 (three-sites binding model)): 3 ± 1.7 µM
Kd (SyPII [1]; in presence 2-OG (1 mM), read-out: Kd3 (three-sites binding model)): 325 ± 171 µM
N, number of calculated binding sites (one-site binding model) (SyPII [1]; titrant alone): 3.2
Kd (SyPII [1]; [3]): 43.3 ± 37.7 µM
Kd (SyPII [1]; [4]): 7.5 ± 7.3 µM
Kd (SyPII [1]; [5]): 15.9 ± 12.2 µM
Kd (SyPII [1]; [6]): 85.4 ± 74.6 µM
Kd (CrPII; in presence 2-OG (2 mM), read-out: Average Kd (one-site binding model)): 35.8 ± 1.6 µM
Kd (CrPII; in presence 2-OG (2 mM), read-out: Kd1 (three-sites binding model)): 5.8 ± 5.8 µM
Kd (CrPII; in presence 2-OG (2 mM), read-out: Kd2 (three-sites binding model)): 53.1 ± 58.3 µM
Kd (CrPII; in presence 2-OG (2 mM), read-out: Kd3 (three-sites binding model)): 61.6 ± 9.7 µM
Average Kd (one-site binding model) (CrPII; titrant alone): unable to notice any binding; also recorded: No binding
Kd1 (three-sites binding model) (CrPII; titrant alone): No binding
Kd2 (three-sites binding model) (CrPII; titrant alone): No binding
Kd3 (three-sites binding model) (CrPII; titrant alone): No binding

CC(=O)N[C@@H](CCC(=O)O)C(=O)O [NAG, N-acetyl glutamate]
Kcat (ScNAGK; free ScNAGK, NAG variable substrate, fixed 10 mM ATP): 8.93 ± 1.40 s⁻¹
Km (ScNAGK; read-out: Km value for N-acetyl glutamate (NAG), free ScNAGK, fixed 10 mM ATP): 16.2 ± 2.14 mM
Kcat (PpPII-ScNAGK complex; NAG variable substrate): 10.02 ± 1.11 s⁻¹
Km (PpPII-ScNAGK complex; read-out: apparent Km for NAG): 4.25 ± 0.36 mM

N=C(N)NCCC[C@H](N)C(=O)O [arginine]
IC50 (ScNAGK; read-out: Feedback inhibition of ScNAGK, half maximal inhibitory concentration (IC50)): 6.2 µM

ScPII: PII protein from Synechocystis sp. PCC 6803, recombinant with C-terminal Strep-tag II
complex formation with PipX (pull-down) (PipX): bound to PipX
